Values of other authors as cited in patent US20240156966A1 (priority 2021, published 2024).

Test system: influenza virus
Settings: in vivo

CCOC(=O)C1=C[C@@H](OC(CC)CC)[C@H](NC(C)=O)[C@@H](N)C1 [Oseltamivir]
patients with detectable viral RNA: 50.0%
